pIC50: −log10 of the molar value.
What was measured:
Histone deacetylase 1 = Histone deacetylase 1 (Homo sapiens, UniProt Q13547); assay: Inhibition of HDAC1 (unknown origin) after 24 hrs by SAMDI mass spectroscopic analysis
LNCaP = assay: Induction of cell cycle arrest in human LNCAP cells assessed as accumulation at lesser G1 phase at 2.5 uM after 24 hrs by propidium iodide staining based FACS analysis (reference value: 1.59%); format: functional
[1] = molecular target: T1, Prostaglandin G/H synthase 2 (Homo sapiens) (UniProt P35354); assay: Inhibition of recombinant human COX2 at 10 uM using arachidonic acid as substrate preincubated for 15 mins followed by substrate addition for 2 mins by Cayman based fluorescence assay
T1 sequence (whole entry): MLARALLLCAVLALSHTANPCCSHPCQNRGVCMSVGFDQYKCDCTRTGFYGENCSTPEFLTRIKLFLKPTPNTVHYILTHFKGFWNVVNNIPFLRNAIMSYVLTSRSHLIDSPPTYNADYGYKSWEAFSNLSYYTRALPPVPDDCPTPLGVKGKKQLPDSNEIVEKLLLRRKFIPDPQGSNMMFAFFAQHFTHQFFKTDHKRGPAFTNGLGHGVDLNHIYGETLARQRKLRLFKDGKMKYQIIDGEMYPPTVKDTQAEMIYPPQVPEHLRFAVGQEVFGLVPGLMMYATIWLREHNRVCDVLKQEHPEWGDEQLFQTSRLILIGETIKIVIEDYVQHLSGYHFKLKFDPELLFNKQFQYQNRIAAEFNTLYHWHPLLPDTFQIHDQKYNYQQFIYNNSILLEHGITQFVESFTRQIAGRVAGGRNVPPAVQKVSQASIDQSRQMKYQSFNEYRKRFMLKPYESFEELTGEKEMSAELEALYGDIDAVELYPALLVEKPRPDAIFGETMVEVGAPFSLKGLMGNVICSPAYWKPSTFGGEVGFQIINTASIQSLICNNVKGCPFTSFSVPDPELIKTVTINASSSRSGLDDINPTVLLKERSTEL

[2] = Cytotoxicity against human HeLa cells assessed as cell growth inhibition after 72 hrs by MTT assay
Histone deacetylase 2 = Histone deacetylase 2 (Homo sapiens, UniProt Q92769); assay: Inhibition of HDAC2 (unknown origin) after 24 hrs by SAMDI mass spectroscopic analysis
[3] = molecular target: T2, Protein deacetylase HDAC6 (Homo sapiens) (UniProt Q9UBN7); assay: Inhibition of HDAC6 in human LNCAP cells assessed as acetylated tubulin accumulation in cytosol after 24 hrs by Western blot analysis; format: cell-based
T2 sequence (whole entry): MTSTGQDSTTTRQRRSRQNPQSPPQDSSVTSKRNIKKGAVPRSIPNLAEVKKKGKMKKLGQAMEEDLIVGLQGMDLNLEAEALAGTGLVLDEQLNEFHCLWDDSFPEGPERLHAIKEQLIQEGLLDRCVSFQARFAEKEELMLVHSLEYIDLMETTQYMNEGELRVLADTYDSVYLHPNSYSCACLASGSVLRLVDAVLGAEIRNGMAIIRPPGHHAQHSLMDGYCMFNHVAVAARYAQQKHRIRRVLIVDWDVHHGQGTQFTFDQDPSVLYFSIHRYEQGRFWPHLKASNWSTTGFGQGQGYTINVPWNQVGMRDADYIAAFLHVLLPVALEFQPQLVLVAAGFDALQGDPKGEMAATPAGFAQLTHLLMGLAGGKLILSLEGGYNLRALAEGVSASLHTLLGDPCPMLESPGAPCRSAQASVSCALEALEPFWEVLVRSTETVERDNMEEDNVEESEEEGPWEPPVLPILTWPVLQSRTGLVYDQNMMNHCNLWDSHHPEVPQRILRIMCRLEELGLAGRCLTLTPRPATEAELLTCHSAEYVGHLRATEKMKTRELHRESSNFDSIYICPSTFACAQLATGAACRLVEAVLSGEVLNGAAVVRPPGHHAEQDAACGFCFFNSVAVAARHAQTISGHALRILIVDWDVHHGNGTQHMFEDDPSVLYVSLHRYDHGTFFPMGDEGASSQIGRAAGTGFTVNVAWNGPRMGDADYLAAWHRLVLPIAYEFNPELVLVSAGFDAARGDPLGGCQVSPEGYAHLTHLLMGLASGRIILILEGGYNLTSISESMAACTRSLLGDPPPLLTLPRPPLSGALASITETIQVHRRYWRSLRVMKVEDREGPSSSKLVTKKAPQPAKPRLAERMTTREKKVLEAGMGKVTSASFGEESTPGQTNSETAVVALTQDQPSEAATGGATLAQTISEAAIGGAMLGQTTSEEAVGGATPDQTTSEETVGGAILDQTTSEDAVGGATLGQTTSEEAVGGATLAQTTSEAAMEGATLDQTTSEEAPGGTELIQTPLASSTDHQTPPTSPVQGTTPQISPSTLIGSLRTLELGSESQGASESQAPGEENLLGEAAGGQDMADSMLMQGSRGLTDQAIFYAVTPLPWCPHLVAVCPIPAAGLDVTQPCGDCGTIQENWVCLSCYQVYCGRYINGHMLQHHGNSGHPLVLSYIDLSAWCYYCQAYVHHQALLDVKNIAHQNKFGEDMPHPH

[4] = molecular target: T3, Protein deacetylase HDAC6 (Homo sapiens, UniProt Q9UBN7); assay: Inhibition of HDAC6 (unknown origin) after 20 hrs by SAMDI mass spectroscopic analysis
T3 sequence (Q9UBN7 whole entry): T2 sequence (whole entry)

Histone deacetylase 3 = Histone deacetylase 3 (Homo sapiens, UniProt O15379); assay: Inhibition of HDAC3 (unknown origin) after 5 hrs by SAMDI mass spectroscopic analysis
[5] = molecular target: T4, Prostaglandin G/H synthase 1 (Ovis aries, UniProt P05979); assay: Inhibition of sheep COX1 using arachidonic acid as substrate preincubated for 15 mins followed by substrate addition for 2 mins by Cayman based fluorescence assay
T4 sequence (P05979 whole entry): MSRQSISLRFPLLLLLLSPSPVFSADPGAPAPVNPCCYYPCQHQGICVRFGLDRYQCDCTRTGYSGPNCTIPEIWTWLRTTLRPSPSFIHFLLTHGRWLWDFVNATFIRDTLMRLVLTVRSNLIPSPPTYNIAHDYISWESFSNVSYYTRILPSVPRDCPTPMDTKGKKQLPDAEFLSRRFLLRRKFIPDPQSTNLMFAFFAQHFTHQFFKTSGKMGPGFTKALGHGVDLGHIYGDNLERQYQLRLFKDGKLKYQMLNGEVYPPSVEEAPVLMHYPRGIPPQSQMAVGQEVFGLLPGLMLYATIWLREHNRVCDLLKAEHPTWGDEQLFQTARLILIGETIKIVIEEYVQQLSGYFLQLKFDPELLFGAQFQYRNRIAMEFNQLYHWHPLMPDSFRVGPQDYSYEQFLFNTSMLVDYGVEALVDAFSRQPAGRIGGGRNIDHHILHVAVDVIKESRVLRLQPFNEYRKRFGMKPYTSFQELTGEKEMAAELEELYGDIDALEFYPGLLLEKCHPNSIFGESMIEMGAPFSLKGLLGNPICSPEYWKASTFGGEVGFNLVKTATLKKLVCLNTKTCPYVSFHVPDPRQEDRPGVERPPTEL

[6] = molecular target: T5, Prostaglandin G/H synthase 2 (Homo sapiens, UniProt P35354); assay: Inhibition of recombinant human COX2 using arachidonic acid as substrate preincubated for 15 mins followed by substrate addition for 2 mins by Cayman based fluorescence assay
T5 sequence (P35354 whole entry): T1 sequence (whole entry)

Chain of Histone deacetylase 3 (O15379 whole entry): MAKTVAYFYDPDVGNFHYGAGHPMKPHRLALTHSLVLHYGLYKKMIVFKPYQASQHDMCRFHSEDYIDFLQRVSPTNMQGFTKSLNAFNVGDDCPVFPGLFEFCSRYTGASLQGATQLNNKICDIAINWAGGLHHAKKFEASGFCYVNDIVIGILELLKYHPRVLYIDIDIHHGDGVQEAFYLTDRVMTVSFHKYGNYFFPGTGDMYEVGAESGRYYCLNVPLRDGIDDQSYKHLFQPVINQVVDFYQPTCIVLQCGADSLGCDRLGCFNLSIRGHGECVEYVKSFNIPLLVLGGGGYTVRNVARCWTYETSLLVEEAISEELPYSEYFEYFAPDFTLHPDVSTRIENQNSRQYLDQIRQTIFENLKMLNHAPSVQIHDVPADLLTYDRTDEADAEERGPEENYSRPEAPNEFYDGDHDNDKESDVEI
Chain of Histone deacetylase 1 (Q13547 whole entry): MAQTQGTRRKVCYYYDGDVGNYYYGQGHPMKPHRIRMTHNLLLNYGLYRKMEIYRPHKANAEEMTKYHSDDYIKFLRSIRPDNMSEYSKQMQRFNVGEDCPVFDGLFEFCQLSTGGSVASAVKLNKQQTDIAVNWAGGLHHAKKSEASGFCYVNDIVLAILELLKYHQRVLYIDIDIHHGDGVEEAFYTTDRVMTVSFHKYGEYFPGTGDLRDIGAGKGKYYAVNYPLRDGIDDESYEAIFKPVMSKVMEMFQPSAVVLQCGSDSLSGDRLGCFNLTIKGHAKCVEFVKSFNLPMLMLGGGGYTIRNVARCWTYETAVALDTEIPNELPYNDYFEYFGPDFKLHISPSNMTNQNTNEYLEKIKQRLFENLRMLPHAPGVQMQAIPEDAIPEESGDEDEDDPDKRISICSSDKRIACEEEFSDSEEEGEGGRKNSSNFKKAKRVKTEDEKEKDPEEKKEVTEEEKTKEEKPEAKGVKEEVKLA
Chain of Histone deacetylase 2 (Q92769 whole entry): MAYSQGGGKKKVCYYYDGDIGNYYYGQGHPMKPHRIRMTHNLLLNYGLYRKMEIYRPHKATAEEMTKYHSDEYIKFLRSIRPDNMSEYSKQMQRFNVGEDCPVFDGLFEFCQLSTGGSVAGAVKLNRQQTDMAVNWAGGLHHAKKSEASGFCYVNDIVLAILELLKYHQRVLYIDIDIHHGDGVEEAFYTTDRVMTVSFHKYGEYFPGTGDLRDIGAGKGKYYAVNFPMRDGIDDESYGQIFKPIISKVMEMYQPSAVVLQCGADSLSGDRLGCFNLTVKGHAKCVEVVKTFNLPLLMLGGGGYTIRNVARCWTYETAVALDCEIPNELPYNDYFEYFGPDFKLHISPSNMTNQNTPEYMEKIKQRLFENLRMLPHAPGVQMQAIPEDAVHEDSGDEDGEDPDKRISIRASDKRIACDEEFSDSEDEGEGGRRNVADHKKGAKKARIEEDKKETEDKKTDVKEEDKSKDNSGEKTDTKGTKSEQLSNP

Row | pIC50 (Histone deacetylase 1) | inhibition [1] [%] | pIC50 (Histone deacetylase 2) | inhibition [3] | pIC50 [4] | pIC50 (Histone deacetylase 3) | pIC50 [5] | pIC50 [6] | SMILES | Activity (LNCaP) [%] | pIC50 [2]
1 | 5.99 | 100 | 5.39 | Dose-dependent effect | 7.18 | 6.37 | 5.45 | 6.52 | Cc1ccc(-c2cc(C(F)(F)F)nn2-c2ccc(S(=O)(=O)NCCCCCCC(=O)NO)cc2)cc1 | -0.32 | 5.19
2 | 6.01 | 98.1 | 6.07 | Dose-dependent effect | 7.31 | 6.45 | 4.68 | 6.48 | COc1ccc2c(c1)c(CC(=O)NCCCCCCC(=O)NO)c(C)n2C(=O)c1ccc(Cl)cc1 | 1.95 | 5.05
